Measurements reported in patent US7511123B2, “Immuno-interactive fragments of the alpha-C subunit of inhibin” (Prince Henry's Institute of Medical Research, priority 1999, dated 2009).

Assays:
PO-22 [1] = assay: Solid phase binding of Set 2 peptides to PO-22; parameters: species or system mouse; key: +++; ΦΦΦ strong effect; +, Φ weak effect; conditions: Set 2 biotinylated peptides 24 micromoles/L
Method: (§1) The binding of the 41 biotinylated peptides as set forth in Table 7 (peptide set 2) to the mouse monoclonal antibodies (PO# series) was assessed as follows:
(§2) a) Assay 1 (solid phase assay). The assay was undertaken as outlined in assay 1 of Example 2. Biotinylated peptides (24 micromoles/L) were initially bound to streptavidin-coated plates. Mab (at an appropriate dilution to give a detectable response, 1:1000, 1:10000 dilution of the culture medium) was then added and incubated for 1.5 hr. The amount of bound Mab was determined using horseradish peroxidase-bound anti-mouse IgG serum and enzyme activity detected at 450-630 nm using an ELISA plate reader.

As#41 = assay: Sandwich assay with As#41 as both coating and labeled antibody, no inhibin; format: binding, sheep; conditions: peptide added to both coating and labeled As#41
Excerpt: It has not been established if the same antibodies are present in As #128.

R1 [2] = assay: RIA of Set 2 peptides with R1; format: binding, mouse; parameters: key: ΦΦΦ strong effect; +, Φ weak effect; a) limited binding; conditions: Set 2 biotinylated peptides 0.8 and 0.08 micromoles/L
Method: (§3) The binding of the 41 biotinylated peptides as set forth in Table 7 (peptide set 2) to the mouse monoclonal antibodies (PO# series) was assessed as follows: b) Assay 2 (radioimrnunoassay, RIA) using iodinated human inhibin A as tracer. Mabs (at an appropriate dilution, see above) were incubated with iodinated human recombinant inhibin in the presence of biotinylated peptides (0.8 and 0.08 micromoles/L final concentration) overnight at room temperature.

PO-22 [3] = assay: RIA of Set 2 peptides with PO-22; format: binding, mouse; conditions: Set 2 biotinylated peptides 0.8 and 0.08 micromoles/L
Method: as §3

As #41 [4] = assay: Competitive 2-site assay (Assay 3), approach (b); format: binding, sheep; conditions: biotinylated peptide pools or peptides incubated with iodinated As #41
Excerpt: This assay was developed to establish the relative importance of the individual peptides and peptide pools (identified as epitopes in Assays 1 and 2) in the sandwich antibody format used in the IFMA with As #128 as capture antibody and As #41 as detection antibody. Two approaches (a and b) were considered, Approach (a) explores the cross-reaction of peptides with inhibin for the immobilized As #128 while Approach (b) assesses their cross-reaction with inhibin for As #41.
Approach (b). In this approach, the competition of peptides with the As #41 antiserum using the sandwich antibody format was assessed. Hr-Inhibin was initially incubated with the As #128 coated wells for 1 hour at room temperature. The biotinylated peptide pools and/or individual peptides were incubated together with iodinated As #41 for 1 hour and then added to the inhibin bound As #128 coated plates and incubated for 2 hours at room temperature. Plates were then washed to remove any unbound material and the resulting activity was measured in the gamma counter.

As #128 [5] = assay: Solid phase assay (Assay 1): biotinylated peptides binding to As #128; parameters: species or system sheep; key: +++++ major contribution; + minor contribution; conditions: relative contribution
How it was run: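 The 31 biotinylated peptides were captured on streptavidin-coated wells for 2 h at room temperature, then incubated with ovine antiserum #41 or #128 for 2 h at room temperature. Bound antiserum was detected with HRP-labelled anti-ovine IgG and a colorimetric substrate read spectrophotometrically; the signal is proportional to peptide binding.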

As #1989 = assay: RIA (Assay 2): competition with iodinated inhibin for As #1989; format: binding, rabbit
How it was run: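 Radioimmunoassay measuring how well peptides compete with iodinated 30 kDa human recombinant inhibin tracer for binding to antiserum #1989. Graded doses of peptide, iodinated inhibin and diluted antiserum were incubated overnight at 4° C. Antibody-bound tracer was precipitated with goat anti-sheep IgG serum and counted in a gamma counter. The ED50, the peptide concentration halving tracer binding, indicated affinity.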

As #41 [6] = assay: RIA (Assay 2): competition with iodinated inhibin for As #41; format: binding, sheep
How it was run: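 Graded doses of peptide or hr-inhibin standard competed with iodinated human recombinant 30 kDa inhibin tracer for the sheep antiserum at a set dilution, overnight at 4°C. Bound tracer was precipitated with goat anti-sheep IgG and gamma-counted. ED50 is the dose producing 50% loss of tracer binding.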

R1 [7] = assay: Solid phase binding of Set 2 peptides to R1; parameters: species or system mouse; key: +++; ΦΦΦ strong effect; +, Φ weak effect; conditions: Set 2 biotinylated peptides 24 micromoles/L
Method: as §1, §2

As #41 [8] = assay: Two-site assay design variation: biotinylated #41 pre-incubated with peptide; format: binding, sheep; conditions: non-biotinylated peptides 0.1-1.0 micromolar
Method: (iv) In a variation to the above design, biotinylated #41 was pre-incubated with peptide (0.1-1.0 micromolar) for 1.5 hours at room temperature and then added to the As #128 coated plate pre-bound with inhibin as for (i)-(iii). […] Combination of peptide #5 and #30 led to 74% decrease.

As #128 [9] = assay: Two-site assay design: peptides pre-incubated with As #128 coated plate; format: binding, sheep; conditions: non-biotinylated peptides 0.1-1 micromolar
Method: On the other hand, the IFMA design is based on the total amount of inhibin bound which is a combination of both antibody affinity and concentration. In order to establish to what extent epitopes to these peptides contribute to the overall IFMA, the following two-site assay designs were used.
(i) Peptides #5, #20 and #30 (0, 0.1-1 micromolar) were incubated with the As #128 coated plate for 1.5 hours at RT and the wells washed. The highest dose of peptide used was saturating.
(ii) Hr-Inhibin was then added as a saturating or near saturating dose to the As #128 coated plate and incubated for 2 hours at room temperature and the plate washed.
(iii) Biotinylated As #41 was added to the above wells and incubated for 2 hours at RT. Plates were then washed and counted.

[10] = biotinylated peptides, 50% fall in binding of iodinated inhibin
[11] = non-biotinylated peptides, hr-inhibin A as standard

PO-22 SPB (PO-22 [1]): +++
binding in the absence of inhibin (As#41): significant binding
blocking of As #41 binding to the inhibin-As#128 complex (As #41 [4]): 50%
#128 Antibody screen Assay 1 (As #128 [5]): +
R1 SPB (R1 [7]): +
suppression in binding with As #128 (As #128 [9]): 65%
Substance: SGSG WSPSALRLLQRPPE [Peptide 5]
R1 RIA (R1 [2]): ΦΦΦ
PO-22 RIA (PO-22 [3]): ΦΦ
As#1989 ED50 (As #1989; [10]): >2500 nM
ED50 values As#1989 (As #1989; [11]): >10000 nM
As#41 ED50 (As #41 [6]; [10]): 0.015 nM
cross-reaction with hr-inhibin for As #41 in RIA (As #41 [6]; in words): cross-reacted strongly
ED50 values As#41 (As #41 [6]; [11]): 0.4 nM
inhibition with biotinylated #41 pre-incubated with peptide (As #41 [8]): 50%
